The subject of series [1] is Staphylococcus aureus. The experiment in a line: Antibacterial activity against methicillin-sensitive Staphylococcus aureus ATCC 29213 clinical isolate assessed as bacterial growth inhibition at 256 to 0.125 ug/ml in CAMH broth medium incubated for 16 to 20 hrs by broth microdilution method. The format is functional. The note with it: dose 256-0.125 µg/ml, time 16-20 hrs. Background: In broth dilution the organism is exposed to a series of concentrations in liquid medium.

A short description of series [2]: Therapeutic index, ratio of HC50 for human RBC to MIC for antibacterial activity against methicillin-sensitive Staphylococcus aureus ATCC 29213 clinical isolate. The settings on record: pooled result: one value given for 2 cell lines, strains, targets or settings, read-out: TI. Format: toxicity, cell-based.
The nature of series [3]: Hemolytic activity in human RBC assessed as hemolysis incubated for 1 hr by absorbance based assay. Format: toxicity, cell-based, Erythrocyte. The note with it: human red blood cells.
Series [4] relates to Staphylococcus aureus. The series is described as follows: Antibacterial activity against methicillin-resistant Staphylococcus aureus ATCC USA 300 clinical isolate assessed as bacterial growth inhibition at 256 to 0.125 ug/ml in CAMH broth medium incubated for 16 to 20 hrs by broth microdilution method. The format is functional. The note with it: dose 256-0.125 µg/ml, time 16-20 hrs.

A short description of series [5]: Retention time of the compound by RP-HPLC analysis. The format is physicochemical.
Series [6] in a line: Nephrotoxicity against HEK293 cells assessed as cell viability incubated for 24 hrs by MTT assay. The settings on record: human. The format is toxicity, cell-based. A general note: Formazan colour is commonly taken as a measure of viable cells.
The nature of series [7]: Hemolytic activity in sheep RBC. Format: toxicity, cell-based, Ovis aries, Erythrocyte. The settings on record: sheep red blood cells.

≈ marks a conversion by molar mass, not a printed value. Square brackets hold non-standard residues; d marks the D form. Peptide text beside a SMILES is read from it. Tle = CC(C)(C)[C@H](N)C(=O)O; Orn = NCCC[C@H](N)C(=O)O A value given as a limit tells only on which side of the number the result lay.

As to `CC(C)C[C@@H]1NC(=O)[C@H](CCCN)NC(=O)[C@H](C(C)C)NC(=O)[C@@H]2CCCN2C(=O)[C@@H](Cc2ccccc2)NC(=O)[C@H](CC(C)C)NC(=O)[C@H](CCCN)NC(=O)[C@H](C(C)C)NC(=O)[C@@H]2CCCN2C(=O)[C@@H](CCCNC(=N)N)NC1=O` (HELM PEPTIDE1{L.[dF].P.V.[Orn].L.[dR].P.V.[Orn]}$PEPTIDE1,PEPTIDE1,1:R1-10:R2$$$V2.0), the MIC in the series on Staphylococcus aureus [1] and in the series with Staphylococcus aureus [4] was 8 µg/mL (≈ 6.95 µM) each time. Moreover, in series [2], the selectivity ratio was determined as 4.9. For the same compound, in series [3], the HC50 at 1 h was determined as 39.2 µg/mL. This compound also showed a Retention_time in series [5] of 16.22 min. In series [6], the half-maximal inhibitory concentration (IC50) at 24 h was found to be 18.7 µg/mL (≈ 16.2 µM). In addition, the HC50 in series [7] was greater than 115 µg/mL.

As for `CC(C)C[C@@H]1NC(=O)[C@H](CCCN)NC(=O)[C@H](C(C)(C)C)NC(=O)[C@@H]2CCCN2C(=O)[C@@H](Cc2ccccc2)NC(=O)[C@H](CC(C)C)NC(=O)[C@H](CCCN)NC(=O)[C@H](C(C)C)NC(=O)[C@@H]2CCCN2C(=O)[C@@H](Cc2ccccc2)NC1=O` (HELM PEPTIDE1{L.[dF].P.[CC(C)(C)[C@H](N[*:1])C(=O)[*:2]].[Orn].L.[dF].P.V.[Orn]}$PEPTIDE1,PEPTIDE1,1:R1-10:R2$$$V2.0), the MIC in the series with Staphylococcus aureus [1] and in the series on Staphylococcus aureus [4] was 4 µg/mL (≈ 3.46 µM) throughout. Moreover, the selectivity ratio in series [2] came to 1.87. Moreover, the HC50 at 1 h in series [3] turned out to be 7.49 µg/mL. The compound also yielded a Retention_time in series [5] of 19.38 min. Also, the IC50 at 24 h in series [6] was 5.46 µg/mL (≈ 4.73 µM).

Regarding `CC(C)C[C@@H]1NC(=O)[C@H](CCCN)NC(=O)[C@H](C(C)(C)C)NC(=O)[C@@H]2CCCN2C(=O)[C@@H](Cc2ccccc2)NC(=O)[C@H](CC(C)C)NC(=O)[C@H](CCCN)NC(=O)[C@H](C(C)(C)C)NC(=O)[C@@H]2CCCN2C(=O)[C@@H](Cc2ccccc2)NC1=O` (HELM PEPTIDE1{L.[dF].P.[CC(C)(C)[C@H](N[*:1])C(=O)[*:2]].[Orn].L.[dF].P.[CC(C)(C)[C@H](N[*:1])C(=O)[*:2]].[Orn]}$PEPTIDE1,PEPTIDE1,1:R1-10:R2$$$V2.0), the MIC with Staphylococcus aureus [1] and in the series on Staphylococcus aureus [4] was 4 µg/mL (≈ 3.42 µM) throughout. The selectivity ratio in series [2] came to 1.57. The HC50 at 1 h in series [3] stood at 6.26 µg/mL. The same compound displayed a Retention_time in series [5] of 19.99 min. Moreover, in series [6], the IC50 at 24 h is 4.62 µg/mL (≈ 3.95 µM).

On to `CC(C)C[C@@H]1NC(=O)[C@H](CCCN)NC(=O)[C@H](C(C)(C)C)NC(=O)[C@@H]2CCCN2C(=O)[C@@H](Cc2ccccc2)NC(=O)[C@H](CC(C)C)NC(=O)[C@H](CCCN)NC(=O)[C@H](C(C)(C)C)NC(=O)[C@@H]2CCCN2C(=O)[C@@H](CCCNC(=N)N)NC1=O` (HELM PEPTIDE1{L.[dF].P.[CC(C)(C)[C@H](N[*:1])C(=O)[*:2]].[Orn].L.[dR].P.[CC(C)(C)[C@H](N[*:1])C(=O)[*:2]].[Orn]}$PEPTIDE1,PEPTIDE1,1:R1-10:R2$$$V2.0), for which the MIC with Staphylococcus aureus [1] and in the series with Staphylococcus aureus [4] was 3 µg/mL (≈ 2.55 µM) each time. In series [2], the selectivity ratio amounted to 5.9. Further, the HC50 at 1 h in series [3] was found to be 17.7 µg/mL. In series [5], the Retention_time is given as 17.15 min. Moreover, the IC50 at 24 h in series [6] came to 9.75 µg/mL (≈ 8.27 µM).

On to `CC(C)C[C@@H]1NC(=O)[C@H](CCCN)NC(=O)[C@H](C(C)C)NC(=O)[C@H](Cc2c[nH]c3ccccc23)NC(=O)[C@@H](Cc2ccccc2)NC(=O)[C@H](CC(C)C)NC(=O)[C@H](CCCN)NC(=O)[C@H](C(C)C)NC(=O)[C@H](Cc2c[nH]c3ccccc23)NC(=O)[C@@H](Cc2ccccc2)NC1=O` (HELM PEPTIDE1{L.[dF].W.V.[Orn].L.[dF].W.V.[Orn]}$PEPTIDE1,PEPTIDE1,1:R1-10:R2$$$V2.0), for which the MIC in the series with Staphylococcus aureus [1] and in the series on Staphylococcus aureus [4] was 7 µg/mL (≈ 5.3 µM) each time. Also, the selectivity ratio in series [2] stood at 1.75. Moreover, the HC50 at 1 h in series [3] was 12.2 µg/mL. The Retention_time in series [5] is given as 18.58 min. In series [6], the IC50 at 24 h was found to be 5.03 µg/mL (≈ 3.81 µM).

In the case of `CC(C)C[C@@H]1NC(=O)[C@H](CCCN)NC(=O)[C@H](C(C)C)NC(=O)[C@@H]2CCCN2C(=O)[C@@H](CCCNC(=N)N)NC(=O)[C@H](CC(C)C)NC(=O)[C@H](CCCN)NC(=O)[C@H](C(C)C)NC(=O)[C@H](Cc2c[nH]c3ccccc23)NC(=O)[C@@H](Cc2ccccc2)NC1=O` (HELM PEPTIDE1{L.[dF].W.V.[Orn].L.[dR].P.V.[Orn]}$PEPTIDE1,PEPTIDE1,1:R1-10:R2$$$V2.0), the MIC in the series on Staphylococcus aureus [1] and with Staphylococcus aureus [4] was 5 µg/mL (≈ 4.03 µM) throughout. Moreover, the selectivity ratio in series [2] amounted to 6.38. For the same compound, the HC50 at 1 h in series [3] amounted to 31.9 µg/mL. This compound also had a Retention_time in series [5] of 16.5 min. For the same compound, in series [6], the IC50 at 24 h was found to be 11.3 µg/mL (≈ 9.13 µM).

As to `CC(C)C[C@@H]1NC(=O)[C@H](CCCN)NC(=O)[C@H](C(C)C)NC(=O)[C@H](Cc2c[nH]c3ccccc23)NC(=O)[C@@H](Cc2ccccc2)NC(=O)[C@H](CC(C)C)NC(=O)[C@H](CCCN)NC(=O)[C@H](C(C)C)NC(=O)[C@H](Cc2c[nH]c3ccccc23)NC(=O)[C@@H](CCCNC(=N)N)NC1=O` (HELM PEPTIDE1{L.[dF].W.V.[Orn].L.[dR].W.V.[Orn]}$PEPTIDE1,PEPTIDE1,1:R1-10:R2$$$V2.0), the MIC in the series on Staphylococcus aureus [1] and in the series with Staphylococcus aureus [4] was 5 µg/mL (≈ 3.76 µM) each time. Further, in series [2], the selectivity ratio was 3.93. Also, in series [3], the HC50 at 1 h is 19.6 µg/mL. Moreover, the Retention_time in series [5] is 16.6 min. The IC50 at 24 h in series [6] is 5.36 µg/mL (≈ 4.03 µM).

Turning to `CC(C)C[C@@H]1NC(=O)[C@H](CCCN)NC(=O)[C@H](C(C)C)NC(=O)[C@H](Cc2c[nH]c3ccccc23)NC(=O)[C@@H](Cc2c[nH]c3ccccc23)NC(=O)[C@H](CC(C)C)NC(=O)[C@H](CCCN)NC(=O)[C@H](C(C)C)NC(=O)[C@H](Cc2c[nH]c3ccccc23)NC(=O)[C@@H](Cc2ccccc2)NC1=O` (HELM PEPTIDE1{L.[dF].W.V.[Orn].L.[dW].W.V.[Orn]}$PEPTIDE1,PEPTIDE1,1:R1-10:R2$$$V2.0), the MIC with Staphylococcus aureus [1] and with Staphylococcus aureus [4] was 64 µg/mL (≈ 47.1 µM) in each case. In addition, the selectivity ratio in series [2] turned out to be 0.58. For the same compound, the HC50 at 1 h in series [3] came out at 37.2 µg/mL. Further, the Retention_time in series [5] came out at 18.68 min. In series [6], the IC50 at 24 h stood at 4.07 µg/mL (≈ 3 µM).

Turning to `CC(C)(C)[C@@H]1NC(=O)[C@H](CCCN)NC(=O)[C@H](C(C)(C)C)NC(=O)[C@@H]2CCCN2C(=O)[C@@H](Cc2ccccc2)NC(=O)[C@H](C(C)(C)C)NC(=O)[C@H](CCCN)NC(=O)[C@H](C(C)(C)C)NC(=O)[C@@H]2CCCN2C(=O)[C@@H](Cc2ccccc2)NC1=O` (cyclo([Orn][Tle][dF]P[Tle][Orn][Tle][dF]P[Tle])), the MIC with Staphylococcus aureus [1] and in the series on Staphylococcus aureus [4] was 2 µg/mL (≈ 1.71 µM) in each case. Further, the selectivity ratio in series [2] was 2.95. For the same compound, in series [3], the HC50 at 1 h came to 5.9 µg/mL. Besides, the Retention_time in series [5] is recorded as 19.9 min. Besides, the 50% inhibitory concentration (IC50) at 24 h in series [6] is 5.31 µg/mL (≈ 4.54 µM).

On to `CC(C)(C)[C@@H]1NC(=O)[C@H](CCCN)NC(=O)[C@H](C(C)(C)C)NC(=O)[C@@H]2CCCN2C(=O)[C@@H](Cc2ccccc2)NC(=O)[C@H](C(C)(C)C)NC(=O)[C@H](CCCN)NC(=O)[C@H](C(C)(C)C)NC(=O)[C@@H]2CCCN2C(=O)[C@@H](CCCNC(=N)N)NC1=O` (cyclo([Orn][Tle][dF]P[Tle][Orn][Tle][dR]P[Tle])), for which the MIC in the series on Staphylococcus aureus [1] and with Staphylococcus aureus [4] was 6 µg/mL (≈ 5.09 µM) throughout. Besides, in series [2], the selectivity ratio is 14. In addition, in series [3], the HC50 at 1 h is 84.1 µg/mL. Also, in series [5], the Retention_time is 16.92 min. Moreover, the IC50 at 24 h in series [6] is 12.6 µg/mL (≈ 10.7 µM).

`CC(C)C[C@@H]1NC(=O)[C@H](CCCN)NC(=O)[C@H](C(C)C)NC(=O)[C@@H]2CCCN2C(=O)[C@@H](Cc2ccccc2)NC(=O)[C@H](CC(C)C)NC(=O)[C@H](CCCN)NC(=O)[C@H](C(C)C)NC(=O)[C@@H]2CCCN2C(=O)[C@@H](Cc2ccccc2)NC1=O` [GRAMICIDIN S] (HELM PEPTIDE1{L.[dF].P.V.[Orn].L.[dF].P.V.[Orn]}$PEPTIDE1,PEPTIDE1,1:R1-10:R2$$$V2.0): the MIC in the series on Staphylococcus aureus [1] and with Staphylococcus aureus [4] was 4 µg/mL (≈ 3.5 µM) throughout. Also, the selectivity ratio in series [2] was found to be 3.09. Besides, in series [3], the HC50 at 1 h came out at 12.3 µg/mL. Further, in series [5], the Retention_time was found to be 18.57 min. In addition, in series [6], the IC50 at 24 h turned out to be 6.45 µg/mL (≈ 5.65 µM).

One may read the MIC as the lowest concentration found to suppress growth. Usually HC50 stands for the concentration giving 50% haemolysis. A word on the IC50: it is the midpoint of a concentration-inhibition curve.

Source of the values: ChEMBL document CHEMBL6074682, “Expanding the therapeutic window of gramicidin S towards a safe and effective systemic treatment of methicillin-resistant S. aureus infections” (Eur J Med Chem, 2025).
